From PubChem BioAssay AID1259407 (Chemical Carcinogenesis Research Information System (CCRIS), 2018)
Activity calls are given as the source filed them. How the calls were made is not given here.

System: CCRIS mutagenicity, Ames/micronucleus/aberration tests
Test: CCRIS mutagenicity studies

Compound: c1ccccc1
- mutagenic call (Test System: AMES SALMONELLA TYPHIMURIUM, Strain/Indicator: TA100, Metabolic Activation: RAT, LIVER, S-9, PHENOBARBITAL, Method: PREINCUBATION): inactive; negative
- mutagenic call (Test System: AMES SALMONELLA TYPHIMURIUM, Strain/Indicator: TA100, Metabolic Activation: RAT, LIVER, S-9, PHENOBARBITAL, Method: STANDARD PLATE): inactive; negative
- mutagenic call (Test System: AMES SALMONELLA TYPHIMURIUM, Strain/Indicator: TA100, Metabolic Activation: RAT, LIVER, S-9, PYRAZOLE, Method: STANDARD PLATE): inactive; negative
- mutagenic call (Test System: AMES SALMONELLA TYPHIMURIUM, Strain/Indicator: TA100, Metabolic Activation: S-9, Method: STANDARD PLATE): inactive; negative
- mutagenic call (Test System: AMES SALMONELLA TYPHIMURIUM, Strain/Indicator: TA102, Metabolic Activation: NONE, Method: STANDARD PLATE): inactive; negative
- mutagenic call (Test System: AMES SALMONELLA TYPHIMURIUM, Strain/Indicator: TA102, Metabolic Activation: RAT, LIVER, S-9, ETHANOL, Method: STANDARD PLATE): inactive; negative
- mutagenic call (Test System: AMES SALMONELLA TYPHIMURIUM, Strain/Indicator: TA102, Metabolic Activation: RAT, LIVER, S-9, PYRAZOLE, Method: STANDARD PLATE): inactive; negative
- mutagenic call (Test System: AMES SALMONELLA TYPHIMURIUM, Strain/Indicator: TA102, Metabolic Activation: S-9, Method: STANDARD PLATE): inactive; negative
- mutagenic call (Test System: AMES SALMONELLA TYPHIMURIUM, Strain/Indicator: TA104, Metabolic Activation: RAT, LIVER, S-9, AROCLOR 1254, Method: DESICCATOR): inactive; negative
- mutagenic call (Test System: AMES SALMONELLA TYPHIMURIUM, Strain/Indicator: TA1535, Metabolic Activation: HAMSTER LIVER S-9, AROCLOR 1254 (10 OR 30%), Method: PREINCUBATION): inactive; negative
- mutagenic call (Test System: AMES SALMONELLA TYPHIMURIUM, Strain/Indicator: TA1535, Metabolic Activation: NONE, Method: DESICCATOR): inactive; negative
- mutagenic call (Test System: AMES SALMONELLA TYPHIMURIUM, Strain/Indicator: TA1535, Metabolic Activation: NONE, Method: PREINCUBATION): inactive; negative
- mutagenic call (Test System: AMES SALMONELLA TYPHIMURIUM, Strain/Indicator: TA1535, Metabolic Activation: NONE, Method: STANDARD PLATE): inactive; negative
- mutagenic call (Test System: AMES SALMONELLA TYPHIMURIUM, Strain/Indicator: TA1535, Metabolic Activation: RAT LIVER S-9, AROCLOR 1254 (10 OR 30%), Method: PREINCUBATION): inactive; negative
- mutagenic call (Test System: AMES SALMONELLA TYPHIMURIUM, Strain/Indicator: TA1535, Metabolic Activation: RAT, LIVER, S-9, AROCLOR 1254, Method: DESICCATOR): active; positive
- mutagenic call (Test System: AMES SALMONELLA TYPHIMURIUM, Strain/Indicator: TA1535, Metabolic Activation: RAT, LIVER, S-9, AROCLOR 1254, Method: STANDARD PLATE): inactive; negative
- mutagenic call (Test System: AMES SALMONELLA TYPHIMURIUM, Strain/Indicator: TA1535, Metabolic Activation: RAT, LIVER, S-9, PYRAZOLE, Method: STANDARD PLATE): inactive; negative
- mutagenic call (Test System: AMES SALMONELLA TYPHIMURIUM, Strain/Indicator: TA1537, Metabolic Activation: NONE, Method: STANDARD PLATE): inactive; negative
- mutagenic call (Test System: AMES SALMONELLA TYPHIMURIUM, Strain/Indicator: TA1537, Metabolic Activation: RAT, LIVER, S-9, AROCLOR 1254, Method: STANDARD PLATE): inactive; negative
- mutagenic call (Test System: AMES SALMONELLA TYPHIMURIUM, Strain/Indicator: TA1537, Metabolic Activation: RAT, LIVER, S-9, PYRAZOLE, Method: STANDARD PLATE): inactive; negative
- mutagenic call (Test System: AMES SALMONELLA TYPHIMURIUM, Strain/Indicator: TA1538, Metabolic Activation: NONE, Method: STANDARD PLATE): inactive; negative
- mutagenic call (Test System: AMES SALMONELLA TYPHIMURIUM, Strain/Indicator: TA1538, Metabolic Activation: RAT, LIVER, S-9, AROCLOR 1254, Method: STANDARD PLATE): inactive; negative
- mutagenic call (Test System: AMES SALMONELLA TYPHIMURIUM, Strain/Indicator: TM677/8-AZAGUANINE, Metabolic Activation: NONE, Method: PREINCUBATION): inactive; negative
- mutagenic call (Test System: AMES SALMONELLA TYPHIMURIUM, Strain/Indicator: TM677/8-AZAGUANINE, Metabolic Activation: RAT, LIVER, S-9, PHENOBARBITAL, Method: PREINCUBATION): inactive; negative
- mutagenic call (Test System: AMES SALMONELLA TYPHIMURIUM, Strain/Indicator: TM677, Metabolic Activation: NONE, Method: STANDARD PLATE): inactive; negative
- mutagenic call (Test System: AMES SALMONELLA TYPHIMURIUM, Strain/Indicator: UTH8413, Metabolic Activation: NONE, Method: STANDARD PLATE): inactive; negative
- mutagenic call (Test System: AMES SALMONELLA TYPHIMURIUM, Strain/Indicator: UTH8413, Metabolic Activation: RAT, LIVER, S-9, AROCLOR, Method: STANDARD PLATE): inactive; negative
- mutagenic call (Test System: AMES SALMONELLA TYPHIMURIUM, Strain/Indicator: UTH8414, Metabolic Activation: NONE, Method: STANDARD PLATE): inactive; negative
- mutagenic call (Test System: AMES SALMONELLA TYPHIMURIUM, Strain/Indicator: UTH8414, Metabolic Activation: RAT, LIVER, S-9, AROCLOR, Method: STANDARD PLATE): inactive; negative
- mutagenic call (Test System: CHINESE HAMSTER OVARY, Strain/Indicator: CHO-K1-BH4 (HGPRT), Metabolic Activation: NONE, Method: SUSPENSION/PLATE): inactive; negative
- mutagenic call (Test System: CHINESE HAMSTER OVARY, Strain/Indicator: CHO-K1-BH4 (HGPRT), Metabolic Activation: RAT, LIVER, S-9, AROCLOR, Method: SUSPENSION/PLATE): inactive; negative
- mutagenic call (Test System: CHINESE HAMSTER OVARY, Strain/Indicator: CHO/6-THIOGUANINE, Metabolic Activation: HAMSTER EMBRYO CELL-MEDIATED): inactive; negative
- mutagenic call (Test System: CHINESE HAMSTER OVARY, Strain/Indicator: CHO/6-THIOGUANINE, Metabolic Activation: NONE): inactive; negative
- mutagenic call (Test System: CHINESE HAMSTER OVARY, Strain/Indicator: CHO/OUABAIN, Metabolic Activation: HAMSTER EMBRYO CELL-MEDIATED): inactive; negative
- mutagenic call (Test System: CHINESE HAMSTER OVARY, Strain/Indicator: CHO/OUABAIN, Metabolic Activation: NONE): inactive; negative
- mutagenic call (Test System: CHINESE HAMSTER V-79, Strain/Indicator: V-79 (HGPRT)/6-THIOGUANINE, Metabolic Activation: NONE): inactive; negative
- mutagenic call (Test System: CHINESE HAMSTER V-79, Strain/Indicator: V-79 (HGPRT)/6-THIOGUANINE, Metabolic Activation: RAT, LIVER, S-9, PHENOBARBITAL AND BETA-NAPHTHOFLAVONE): inactive; negative
- mutagenic call (Test System: CHINESE HAMSTER V-79, Strain/Indicator: V-79/6-THIOGUANINE, Metabolic Activation: RAT, LIVER, S-9, PHENOBARBITAL AND 5,6-BENZOFLAVONE, Method: REPLATING): inactive; negative
- mutagenic call (Test System: MOUSE LYMPHOMA, Strain/Indicator: L5178Y (TK+/+)/OUABAIN, Metabolic Activation: RAT LIVER S-9, AROCLOR 1254, Method: SUSPENSION/PLATE): active; positive
- mutagenic call (Test System: MOUSE LYMPHOMA, Strain/Indicator: L5178Y (TK+/TK-), Metabolic Activation: NONE, Method: MICROWELL): active; positive
- mutagenic call (Test System: MOUSE LYMPHOMA, Strain/Indicator: L5178Y (TK+/TK-), Metabolic Activation: NONE, Method: SUSPENSION/PLATE): inactive; negative
- mutagenic call (Test System: MOUSE LYMPHOMA, Strain/Indicator: L5178Y (TK+/TK-), Metabolic Activation: RAT, LIVER, S-9, AROCLOR 1254, Method: SUSPENSION/PLATE): active; positive
- mutagenic call (Test System: MOUSE LYMPHOMA, Strain/Indicator: L5178Y (TK+/TK-), Metabolic Activation: RAT, LIVER, S-9, Method: SUSPENSION/PLATE): inactive; negative
- mutagenic call (Test System: MOUSE LYMPHOMA, Strain/Indicator: L5178Y (TK+/TK-), Metabolic Activation: S-9, Method: MICROWELL): active; positive
- mutagenic call (Test System: MOUSE LYMPHOMA, Strain/Indicator: L5178Y(TK+/-)/TRIFLUOROTHYMIDINE, Metabolic Activation: RAT LIVER s-9, AROCLOR 1254, Method: SUSPENSION/PLATE): active; positive
- mutagenic call (Test System: UDS RAT HEPATOCYTES, Strain/Indicator: THY INCORP, Metabolic Activation: NONE, Method: LIQUID SCINTILLATION COUNTING): active; positive
- mutagenic call (Test System: UDS SHE CELLS, Strain/Indicator: THY INCORP, Metabolic Activation: NONE, Method: LIQUID SCINTILLATION COUNTING): inactive; negative
